Measured values published in ChEMBL document CHEMBL5649166, “RIP3 induces apoptosis independent of pronecrotic kinase activity” (Mol Cell, 2014).

Columns and labels:
[1] = target: T1, Dual specificity protein kinase TTK (Homo sapiens) (UniProt P33981); assay: Inhibition of human TTK using at 1 uM in presence of 32P-ATP by Hotspot assay relative to control; values are per cent of control
T1 sequence (whole entry): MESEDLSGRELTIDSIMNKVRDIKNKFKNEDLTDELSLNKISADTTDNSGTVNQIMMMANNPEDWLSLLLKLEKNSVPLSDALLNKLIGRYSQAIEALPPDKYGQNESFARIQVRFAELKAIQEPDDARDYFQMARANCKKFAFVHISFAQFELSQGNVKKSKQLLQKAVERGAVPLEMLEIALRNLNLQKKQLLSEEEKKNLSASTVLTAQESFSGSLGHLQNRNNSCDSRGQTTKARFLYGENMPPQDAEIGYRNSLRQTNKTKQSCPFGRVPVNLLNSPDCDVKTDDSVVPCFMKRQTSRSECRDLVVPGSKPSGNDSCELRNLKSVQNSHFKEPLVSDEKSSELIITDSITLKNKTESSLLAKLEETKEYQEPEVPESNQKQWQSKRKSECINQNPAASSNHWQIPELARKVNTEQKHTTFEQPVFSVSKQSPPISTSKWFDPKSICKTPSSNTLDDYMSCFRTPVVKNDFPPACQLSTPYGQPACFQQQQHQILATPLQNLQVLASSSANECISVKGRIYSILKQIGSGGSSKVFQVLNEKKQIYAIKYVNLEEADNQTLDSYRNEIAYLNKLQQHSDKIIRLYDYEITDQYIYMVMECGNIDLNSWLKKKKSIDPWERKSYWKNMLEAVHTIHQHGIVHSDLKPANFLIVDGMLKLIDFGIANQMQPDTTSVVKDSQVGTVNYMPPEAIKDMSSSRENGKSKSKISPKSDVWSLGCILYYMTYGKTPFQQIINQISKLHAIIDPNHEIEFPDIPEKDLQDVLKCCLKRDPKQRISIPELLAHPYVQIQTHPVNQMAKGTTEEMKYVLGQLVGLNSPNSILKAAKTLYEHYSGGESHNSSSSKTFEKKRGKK

[2] = target: Casein kinase I isoform delta (Homo sapiens) (UniProt P48730); assay: Inhibition of human CK1d using KRRRAL[pS]VASLPGL as substrate at 1 uM in presence of 32P-ATP by Hotspot assay relative to control; values are per cent of control
Chain of Casein kinase I isoform delta (Homo sapiens) (P48730 whole entry, looked up, canonical isoform): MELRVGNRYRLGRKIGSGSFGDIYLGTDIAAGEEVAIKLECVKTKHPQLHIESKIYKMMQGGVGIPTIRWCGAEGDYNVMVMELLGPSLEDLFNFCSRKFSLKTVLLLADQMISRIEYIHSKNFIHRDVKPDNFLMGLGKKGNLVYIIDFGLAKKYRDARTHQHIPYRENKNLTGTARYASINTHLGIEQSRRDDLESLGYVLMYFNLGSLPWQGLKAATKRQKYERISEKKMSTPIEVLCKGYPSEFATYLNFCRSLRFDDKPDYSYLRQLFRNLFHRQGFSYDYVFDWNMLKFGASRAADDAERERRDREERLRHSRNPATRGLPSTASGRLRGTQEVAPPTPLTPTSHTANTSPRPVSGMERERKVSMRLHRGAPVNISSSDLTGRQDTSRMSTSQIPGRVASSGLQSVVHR

[3] = target: Cyclin-dependent kinase 4/cyclin D1 (Homo sapiens) (UniProt P11802+P24385); assay: Inhibition of human CDK4/cyclin D1 using RB Protein as substrate at 1 uM in presence of 32P-ATP by Hotspot assay relative to control; values are per cent of control
[4] = target: Serine/threonine-protein kinase N2 (Homo sapiens) (UniProt Q16513); assay: Inhibition of human PKN2/PRK2 using KKLNRTLSVA as substrate at 1 uM in presence of 32P-ATP by Hotspot assay relative to control; values are per cent of control
Chain of Serine/threonine-protein kinase N2 (Homo sapiens) (Q16513 whole entry, looked up): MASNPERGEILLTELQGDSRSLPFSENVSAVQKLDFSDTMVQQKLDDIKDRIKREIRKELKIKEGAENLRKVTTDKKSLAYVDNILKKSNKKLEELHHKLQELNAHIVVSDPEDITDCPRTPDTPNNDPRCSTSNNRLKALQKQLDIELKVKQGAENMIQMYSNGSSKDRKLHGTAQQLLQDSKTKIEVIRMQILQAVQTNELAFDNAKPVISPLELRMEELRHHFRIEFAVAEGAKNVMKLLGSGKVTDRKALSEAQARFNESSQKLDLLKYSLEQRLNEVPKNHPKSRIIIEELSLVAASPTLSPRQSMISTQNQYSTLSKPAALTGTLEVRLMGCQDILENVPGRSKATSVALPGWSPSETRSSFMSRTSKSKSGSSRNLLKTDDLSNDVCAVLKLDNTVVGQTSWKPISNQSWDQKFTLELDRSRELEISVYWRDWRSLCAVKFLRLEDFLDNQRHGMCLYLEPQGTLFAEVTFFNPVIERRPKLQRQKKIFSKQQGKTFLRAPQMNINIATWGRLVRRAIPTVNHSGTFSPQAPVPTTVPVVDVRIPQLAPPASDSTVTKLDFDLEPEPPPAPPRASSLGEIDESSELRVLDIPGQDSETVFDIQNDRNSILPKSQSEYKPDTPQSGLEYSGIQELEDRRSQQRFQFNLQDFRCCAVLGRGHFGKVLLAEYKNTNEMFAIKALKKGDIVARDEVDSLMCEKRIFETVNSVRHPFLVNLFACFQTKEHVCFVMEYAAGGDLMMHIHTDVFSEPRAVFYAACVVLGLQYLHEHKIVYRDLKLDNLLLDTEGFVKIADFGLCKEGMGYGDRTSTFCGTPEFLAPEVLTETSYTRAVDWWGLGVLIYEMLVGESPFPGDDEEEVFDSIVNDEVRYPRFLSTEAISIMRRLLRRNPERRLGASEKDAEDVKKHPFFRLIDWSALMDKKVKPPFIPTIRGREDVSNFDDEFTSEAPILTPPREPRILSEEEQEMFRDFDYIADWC

[5] = target: T2, Serine/threonine-protein kinase Nek2 (Homo sapiens) (UniProt P51955); assay: Inhibition of human NEK2 using myelin basic protein as substrate at 1 uM in presence of 32P-ATP by Hotspot assay relative to control; values are per cent of control
T2 sequence (whole entry): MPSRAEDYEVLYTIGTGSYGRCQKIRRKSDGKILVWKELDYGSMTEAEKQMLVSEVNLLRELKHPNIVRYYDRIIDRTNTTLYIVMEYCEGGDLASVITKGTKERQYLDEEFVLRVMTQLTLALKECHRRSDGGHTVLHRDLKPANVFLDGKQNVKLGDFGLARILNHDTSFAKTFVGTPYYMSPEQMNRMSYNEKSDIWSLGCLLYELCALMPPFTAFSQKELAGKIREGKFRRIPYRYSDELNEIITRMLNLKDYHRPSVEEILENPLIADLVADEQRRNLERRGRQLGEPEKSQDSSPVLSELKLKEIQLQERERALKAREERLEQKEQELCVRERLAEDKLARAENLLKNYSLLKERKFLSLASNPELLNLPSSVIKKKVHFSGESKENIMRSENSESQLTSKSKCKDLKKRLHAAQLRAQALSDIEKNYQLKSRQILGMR

[6] = target: Cyclin-dependent kinase 1/cyclin B1 (Homo sapiens) (UniProt P06493+P14635); assay: Inhibition of human CDK1/cyclin B using RB Protein as substrate at 1 uM in presence of 32P-ATP by Hotspot assay relative to control; values are per cent of control
Chain of Cyclin-dependent kinase 1/cyclin B1 (Homo sapiens) (P06493 whole entry, looked up): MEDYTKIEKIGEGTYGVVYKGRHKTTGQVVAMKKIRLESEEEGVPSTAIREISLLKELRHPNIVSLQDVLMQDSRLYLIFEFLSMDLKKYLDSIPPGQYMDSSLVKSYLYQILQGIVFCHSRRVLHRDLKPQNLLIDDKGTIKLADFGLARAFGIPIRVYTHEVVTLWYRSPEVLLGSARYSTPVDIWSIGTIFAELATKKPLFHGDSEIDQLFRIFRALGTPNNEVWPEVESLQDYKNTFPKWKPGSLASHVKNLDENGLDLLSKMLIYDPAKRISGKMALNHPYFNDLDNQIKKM
Chain of Cyclin-dependent kinase 1/cyclin B1 (Homo sapiens) (P14635 whole entry, looked up): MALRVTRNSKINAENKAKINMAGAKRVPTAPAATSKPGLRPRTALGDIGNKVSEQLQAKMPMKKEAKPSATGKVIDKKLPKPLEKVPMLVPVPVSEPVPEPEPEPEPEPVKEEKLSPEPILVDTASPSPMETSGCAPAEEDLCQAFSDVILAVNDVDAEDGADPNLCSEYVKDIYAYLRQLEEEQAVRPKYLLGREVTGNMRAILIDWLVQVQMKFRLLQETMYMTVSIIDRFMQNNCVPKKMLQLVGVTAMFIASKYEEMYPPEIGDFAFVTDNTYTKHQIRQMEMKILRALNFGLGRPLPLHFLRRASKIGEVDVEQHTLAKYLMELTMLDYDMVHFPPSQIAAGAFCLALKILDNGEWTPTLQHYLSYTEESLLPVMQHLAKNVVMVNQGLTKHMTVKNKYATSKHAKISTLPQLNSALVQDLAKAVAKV

[7] = target: Cyclin-dependent kinase 2/cyclin E1 (Homo sapiens) (UniProt P24864+P24941); assay: Inhibition of human CDK2/cyclin E using RB Protein as substrate at 1 uM in presence of 32P-ATP by Hotspot assay relative to control; values are per cent of control
[8] = target: Focal adhesion kinase 1 (Homo sapiens) (UniProt Q05397); assay: Inhibition of human FAK/PTK2 using poly[Glu:Tyr] (4:1) as substrate at 1 uM in presence of 32P-ATP by Hotspot assay relative to control; values are per cent of control
Chain of Focal adhesion kinase 1 (Homo sapiens) (Q05397 2-1052 limits assumed): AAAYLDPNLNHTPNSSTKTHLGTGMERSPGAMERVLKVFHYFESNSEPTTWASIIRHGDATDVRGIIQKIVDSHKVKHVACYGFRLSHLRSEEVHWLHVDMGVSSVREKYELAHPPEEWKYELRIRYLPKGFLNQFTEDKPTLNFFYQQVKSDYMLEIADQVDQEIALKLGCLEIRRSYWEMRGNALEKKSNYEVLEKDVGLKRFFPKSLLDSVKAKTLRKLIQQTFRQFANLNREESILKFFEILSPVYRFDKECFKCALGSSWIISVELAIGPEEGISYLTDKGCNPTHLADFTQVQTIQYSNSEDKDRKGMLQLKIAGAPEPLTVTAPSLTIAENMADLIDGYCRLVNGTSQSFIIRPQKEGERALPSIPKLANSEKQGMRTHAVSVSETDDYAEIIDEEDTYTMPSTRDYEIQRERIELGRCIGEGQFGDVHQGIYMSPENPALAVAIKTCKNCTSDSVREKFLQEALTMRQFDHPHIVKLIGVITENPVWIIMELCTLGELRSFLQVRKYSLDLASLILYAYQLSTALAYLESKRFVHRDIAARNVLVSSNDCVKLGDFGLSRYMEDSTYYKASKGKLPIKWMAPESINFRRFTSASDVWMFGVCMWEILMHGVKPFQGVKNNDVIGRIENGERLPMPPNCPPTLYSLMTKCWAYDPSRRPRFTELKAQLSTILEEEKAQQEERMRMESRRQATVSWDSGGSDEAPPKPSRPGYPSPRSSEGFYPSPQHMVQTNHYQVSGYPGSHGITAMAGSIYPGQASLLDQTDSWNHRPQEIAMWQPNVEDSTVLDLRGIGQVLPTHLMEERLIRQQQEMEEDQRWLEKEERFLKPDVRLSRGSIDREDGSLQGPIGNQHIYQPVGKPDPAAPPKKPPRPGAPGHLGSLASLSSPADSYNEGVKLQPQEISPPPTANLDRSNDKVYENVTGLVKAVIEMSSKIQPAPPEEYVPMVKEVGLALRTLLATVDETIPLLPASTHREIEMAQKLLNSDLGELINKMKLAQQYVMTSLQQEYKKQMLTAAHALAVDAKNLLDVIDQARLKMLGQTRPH

[9] = target: T3, Dual specificity tyrosine-phosphorylation-regulated kinase 3 (Homo sapiens) (UniProt O43781); assay: Residual activity of human DYRK3 using RRRFRPASPLRGPPK as substrate at 1 uM in presence of 32P-ATP by Hotspot assay relative to control
T3 sequence (whole entry): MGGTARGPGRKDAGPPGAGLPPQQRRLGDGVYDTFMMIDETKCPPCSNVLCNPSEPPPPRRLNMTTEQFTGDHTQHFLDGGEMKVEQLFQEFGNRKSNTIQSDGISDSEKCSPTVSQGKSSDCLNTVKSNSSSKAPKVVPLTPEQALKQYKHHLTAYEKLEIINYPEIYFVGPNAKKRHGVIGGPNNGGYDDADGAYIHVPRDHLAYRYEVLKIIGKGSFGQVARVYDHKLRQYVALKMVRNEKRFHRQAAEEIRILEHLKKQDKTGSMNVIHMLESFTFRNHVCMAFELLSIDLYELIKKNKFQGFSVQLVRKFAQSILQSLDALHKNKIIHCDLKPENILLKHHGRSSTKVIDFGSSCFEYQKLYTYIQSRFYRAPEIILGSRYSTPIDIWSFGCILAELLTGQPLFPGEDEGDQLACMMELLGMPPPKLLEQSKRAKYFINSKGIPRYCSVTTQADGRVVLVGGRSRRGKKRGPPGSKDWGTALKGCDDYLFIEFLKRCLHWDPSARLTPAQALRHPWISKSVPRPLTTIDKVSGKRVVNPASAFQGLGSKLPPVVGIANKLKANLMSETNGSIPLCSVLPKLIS

For `Cc1cc(-c2cnc(N)c3c(-c4ccc5scnc5c4)csc23)n(C)n1`, the residual activity [1] was 101%, the residual activity [2] was 84.6% and the residual activity [3] was 105%. The residual activity [4] was 89.8%, the residual activity [5] was 101% and the residual activity [6] was 95%. It also gave a residual activity [7] of 94.8%, a residual activity [8] of 97.3% and a residual activity [9] of 92.9%.

Compound `CNC(=O)c1ccc2c(c1)ncn2-c1ccc(CC(=O)OC(C)(C)C)cc1` has a residual activity [1] of 91%, a residual activity [2] of 101% and a residual activity [3] of 96.8%. It also gave a residual activity [4] of 93.9%, a residual activity [5] of 102% and a residual activity [6] of 98.9%. The residual activity [7] was 104%, the residual activity [8] was 102% and the residual activity [9] was 101%.

`CC(C)S(=O)(=O)c1ccc2nccc(Nc3ccc4scnc4c3)c2c1` gave a residual activity [1] of 100%, a residual activity [2] of 104% and a residual activity [3] of 95.2%. It also gave a residual activity [4] of 108%, a residual activity [5] of 100% and a residual activity [6] of 101%. For the same compound, the residual activity [7] was 87.7%, the residual activity [8] was 93.9% and the residual activity [9] was 106%.
